Test results published in PMC6272564, “Synthesis and Biological Evaluation of Novel 6-Hydroxy-benzo[d][1,3]oxathiol-2-one Schiff Bases as Potential Anticancer Agents” (Molecules, 2015).

tested on: SKMEL-19; test: MTT cytotoxicity assay, SKMEL-19 melanoma cells; format: cell-based, human; conditions: Homo sapiens, SK-MEL19, 72 h, IC50 with 95% confidence interval, triplicate, 72 h incubation
Method: (§1) In vitro anticancer activity of compounds 2, 3 and 4a–r was evaluated against three human cancer cell lines in comparison to doxorubicin by using MTT assay.
(§2) Compounds (0.312–20 μM) were tested for cytotoxic activity against three cancer cell lines: ACP-03 (gastric), SKMEL-19 (melanoma) and HCT-116 (colon). All cell lines were maintained in DMEM medium supplemented with 10% fetal bovine serum, 2 mM glutamine, 100 U/mL penicillin, and […] streptomycin at 37 °C with 5% CO2. Each compound was dissolved in DMSO and diluted with water to obtain a concentration of 20 μM. They were incubated with the cells for 72 h. The negative control received the same amount of DMSO (0.005% in the highest concentration). Doxorrubicin was used as a positive control. The cell viability was determined by reduction of the yellow dye 3-(4,5-dimethyl-2-thiazol)-2,5-diphenyl-2H-tetrazolium bromide (MTT) to a blue formazan product after 48 h as described by Mosmann.

Row | Compound | IC50 [µM]
1 | COc1cccc2c1C(=O)c1c(O)c3c(c(O)c1C2=O)C[C@@](O)(C(=O)CO)C[C@@H]3O[C@H]1C[C@H](N)[C@H](O)[C@H](C)O1 [Dox, Doxorubicin, reference compound] | 0.045
2 | O=c1oc2cc(O)c(/N=C/c3ccc(Cl)cc3Cl)cc2s1 [Compound 4g, (E)-5-(2,4-Dichlorobenzylideneamino)-6-hydroxybenzo[d][1,3]oxathiol-2-one] | > 10
3 | N#Cc1ccc(/C=N/c2cc3sc(=O)oc3cc2O)cc1 [Compound 4a, (E)-4-((6-Hydroxy-2-oxobenzo[d][1,3]oxathiol-5-ylimino)methyl)benzonitrile] | > 10
4 | O=c1oc2cc(O)c([N+](=O)[O-])cc2s1 [Compound 2, 6-Hydroxy-5-nitrobenzo[d][1,3]oxathiol-2-one] | > 10
5 | CN(C)c1ccc(/C=N/c2cc3sc(=O)oc3cc2O)cc1 [Compound 4i, (E)-5-(4-(Dimethylamino)benzylideneamino)-6-hydroxybenzo[d][1,3]oxathiol-2-one] | > 10
6 | O=c1oc2cc(O)c(/N=C/c3ccc([N+](=O)[O-])cc3)cc2s1 [Compound 4b, (E)-6-Hydroxy-5-(4-nitrobenzylideneamino)benzo[d][1,3]oxathiol-2-one] | > 10
7 | O=c1oc2cc(O)c(/N=C/c3ccc(Cl)cc3)cc2s1 [Compound 4f, (E)-5-(4-Chlorobenzylideneamino)-6-hydroxybenzo[d][1,3]oxathiol-2-one] | > 10
8 | O=c1oc2cc(O)c(/N=C/c3cc(O)ccc3O)cc2s1 [Compound 4n, (E)-5-(2,5-Dihydroxybenzylideneamino)-6-hydroxybenzo[d][1,3]oxathiol-2-one] | 5.6
9 | O=c1oc2cc(O)c(/N=C/c3ccccc3O)cc2s1 [Compound 4k, (E)-6-Hydroxy-5-(2-hydroxybenzylideneamino)benzo[d][1,3]oxathiol-2-one] | > 10
10 | O=c1oc2cc(O)c(/N=C/c3ccc4c(c3)OCO4)cc2s1 [Compound 4r, (E)-5-(Benzo[d][1,3]dioxol-5-ylmethyleneamino)-6-hydroxybenzo[d][1,3]oxathiol-2-one] | > 10

tested on: HCT-116; test: MTT cytotoxicity assay, HCT-116 colon cancer cells; format: cell-based; conditions: Homo sapiens, IC50 with 95% confidence interval, triplicate, 72 h incubation
Method: as §1, §2

Row | Compound | IC50 [µM]
11 | COc1cccc2c1C(=O)c1c(O)c3c(c(O)c1C2=O)C[C@@](O)(C(=O)CO)C[C@@H]3O[C@H]1C[C@H](N)[C@H](O)[C@H](C)O1 [Dox, Doxorubicin, reference compound] | 0.1
12 | O=c1oc2cc(O)c(/N=C/c3ccc(Cl)cc3Cl)cc2s1 [Compound 4g, (E)-5-(2,4-Dichlorobenzylideneamino)-6-hydroxybenzo[d][1,3]oxathiol-2-one] | > 10
13 | N#Cc1ccc(/C=N/c2cc3sc(=O)oc3cc2O)cc1 [Compound 4a, (E)-4-((6-Hydroxy-2-oxobenzo[d][1,3]oxathiol-5-ylimino)methyl)benzonitrile] | > 10
14 | O=c1oc2cc(O)c([N+](=O)[O-])cc2s1 [Compound 2, 6-Hydroxy-5-nitrobenzo[d][1,3]oxathiol-2-one] | > 10
15 | CN(C)c1ccc(/C=N/c2cc3sc(=O)oc3cc2O)cc1 [Compound 4i, (E)-5-(4-(Dimethylamino)benzylideneamino)-6-hydroxybenzo[d][1,3]oxathiol-2-one] | > 10
16 | O=c1oc2cc(O)c(/N=C/c3ccc([N+](=O)[O-])cc3)cc2s1 [Compound 4b, (E)-6-Hydroxy-5-(4-nitrobenzylideneamino)benzo[d][1,3]oxathiol-2-one] | > 10
17 | O=c1oc2cc(O)c(/N=C/c3ccc(Cl)cc3)cc2s1 [Compound 4f, (E)-5-(4-Chlorobenzylideneamino)-6-hydroxybenzo[d][1,3]oxathiol-2-one] | > 10
18 | O=c1oc2cc(O)c(/N=C/c3cc(O)ccc3O)cc2s1 [Compound 4n, (E)-5-(2,5-Dihydroxybenzylideneamino)-6-hydroxybenzo[d][1,3]oxathiol-2-one] | > 10
19 | O=c1oc2cc(O)c(/N=C/c3ccccc3O)cc2s1 [Compound 4k, (E)-6-Hydroxy-5-(2-hydroxybenzylideneamino)benzo[d][1,3]oxathiol-2-one] | > 10
20 | O=c1oc2cc(O)c(/N=C/c3ccc4c(c3)OCO4)cc2s1 [Compound 4r, (E)-5-(Benzo[d][1,3]dioxol-5-ylmethyleneamino)-6-hydroxybenzo[d][1,3]oxathiol-2-one] | > 10

tested on: not listed separately; test: Cell membrane disruption (hemolysis) of mouse erythrocytes; format: cell-based; conditions: mouse erythrocytes (2% suspension), 2% mouse erythrocyte suspension, room temperature, tested 1.5 to 200 μg/mL, lysis 50% of Triton X-100
Method: The mechanical stability of red blood cells is a good parameter for in vitro screening of unspecific cytotoxicity, since the membrane of erythrocyte can suffer significant changes in its structural properties. In order to verify whether the cytotoxicity of the compounds was linked to the membrane disruption, the ability to induce lysis of mouse erythrocytes was investigated, and no membrane damage was found for all tested compounds (EC50 > 200 μg/mL).
The test was performed in 96-well plates using a 2% mouse erythrocyte suspension in 0.85% NaCl containing 10 mM CaCl2. The compounds diluted as mentioned above were tested at concentrations ranging from 1.5 to 200 μg/mL. After incubation at room temperature for 30 min and centrifugation, the supernatant was removed and the liberated hemoglobin was measured spectrophotometrically at 540 nm. DMSO was used as a negative control and Triton X-100 (1%) was used as positive control. EC50 is the calculated effective dose that induced lysis on 50% that of the Triton X-100 [37].

Row | Compound | EC50 at 30 min [µg/mL]
21 | COc1cccc2c1C(=O)c1c(O)c3c(c(O)c1C2=O)C[C@@](O)(C(=O)CO)C[C@@H]3O[C@H]1C[C@H](N)[C@H](O)[C@H](C)O1 [Dox, Doxorubicin, reference compound] | > 200
22 | O=c1oc2cc(O)c(/N=C/c3ccc(Cl)cc3Cl)cc2s1 [Compound 4g, (E)-5-(2,4-Dichlorobenzylideneamino)-6-hydroxybenzo[d][1,3]oxathiol-2-one] | > 200
23 | N#Cc1ccc(/C=N/c2cc3sc(=O)oc3cc2O)cc1 [Compound 4a, (E)-4-((6-Hydroxy-2-oxobenzo[d][1,3]oxathiol-5-ylimino)methyl)benzonitrile] | > 200
24 | O=c1oc2cc(O)c([N+](=O)[O-])cc2s1 [Compound 2, 6-Hydroxy-5-nitrobenzo[d][1,3]oxathiol-2-one] | > 200
25 | CN(C)c1ccc(/C=N/c2cc3sc(=O)oc3cc2O)cc1 [Compound 4i, (E)-5-(4-(Dimethylamino)benzylideneamino)-6-hydroxybenzo[d][1,3]oxathiol-2-one] | > 200
26 | O=c1oc2cc(O)c(/N=C/c3ccc([N+](=O)[O-])cc3)cc2s1 [Compound 4b, (E)-6-Hydroxy-5-(4-nitrobenzylideneamino)benzo[d][1,3]oxathiol-2-one] | > 200
27 | O=c1oc2cc(O)c(/N=C/c3ccc(Cl)cc3)cc2s1 [Compound 4f, (E)-5-(4-Chlorobenzylideneamino)-6-hydroxybenzo[d][1,3]oxathiol-2-one] | > 200
28 | O=c1oc2cc(O)c(/N=C/c3cc(O)ccc3O)cc2s1 [Compound 4n, (E)-5-(2,5-Dihydroxybenzylideneamino)-6-hydroxybenzo[d][1,3]oxathiol-2-one] | > 200
29 | O=c1oc2cc(O)c(/N=C/c3ccccc3O)cc2s1 [Compound 4k, (E)-6-Hydroxy-5-(2-hydroxybenzylideneamino)benzo[d][1,3]oxathiol-2-one] | > 200
30 | O=c1oc2cc(O)c(/N=C/c3ccc4c(c3)OCO4)cc2s1 [Compound 4r, (E)-5-(Benzo[d][1,3]dioxol-5-ylmethyleneamino)-6-hydroxybenzo[d][1,3]oxathiol-2-one] | > 200

tested on: not given; test: not given; conditions: not given

Row | Compound | melting point [°C]
31 | N#Cc1ccc(/C=N/c2cc3sc(=O)oc3cc2O)cc1 [Compound 4a, (E)-4-((6-Hydroxy-2-oxobenzo[d][1,3]oxathiol-5-ylimino)methyl)benzonitrile] | 261 to 263
32 | O=c1oc2cc(O)c([N+](=O)[O-])cc2s1 [Compound 2, 6-Hydroxy-5-nitrobenzo[d][1,3]oxathiol-2-one] | 180 to 182
33 | CN(C)c1ccc(/C=N/c2cc3sc(=O)oc3cc2O)cc1 [Compound 4i, (E)-5-(4-(Dimethylamino)benzylideneamino)-6-hydroxybenzo[d][1,3]oxathiol-2-one] | 199 to 201
34 | O=c1oc2cc(O)c(/N=C/c3ccc([N+](=O)[O-])cc3)cc2s1 [Compound 4b, (E)-6-Hydroxy-5-(4-nitrobenzylideneamino)benzo[d][1,3]oxathiol-2-one] | 223 to 224

More lines, now with the values ahead:

Row | melting point [°C] | Compound
35 | 221 to 223 | O=c1oc2cc(O)c(/N=C/c3ccc(Cl)cc3Cl)cc2s1 [Compound 4g, (E)-5-(2,4-Dichlorobenzylideneamino)-6-hydroxybenzo[d][1,3]oxathiol-2-one]
36 | 210 to 212 | O=c1oc2cc(O)c(/N=C/c3ccc(Cl)cc3)cc2s1 [Compound 4f, (E)-5-(4-Chlorobenzylideneamino)-6-hydroxybenzo[d][1,3]oxathiol-2-one]
37 | 261 to 263 | O=c1oc2cc(O)c(/N=C/c3cc(O)ccc3O)cc2s1 [Compound 4n, (E)-5-(2,5-Dihydroxybenzylideneamino)-6-hydroxybenzo[d][1,3]oxathiol-2-one]
38 | 252 to 253 | O=c1oc2cc(O)c(/N=C/c3ccccc3O)cc2s1 [Compound 4k, (E)-6-Hydroxy-5-(2-hydroxybenzylideneamino)benzo[d][1,3]oxathiol-2-one]
39 | 232 to 233 | O=c1oc2cc(O)c(/N=C/c3ccc4c(c3)OCO4)cc2s1 [Compound 4r, (E)-5-(Benzo[d][1,3]dioxol-5-ylmethyleneamino)-6-hydroxybenzo[d][1,3]oxathiol-2-one]

tested on: ACP-03; test: MTT cytotoxicity assay, ACP-03 gastric cancer cells; format: cell-based, human; conditions: Homo sapiens, 72 h, IC50 with 95% confidence interval, triplicate, 72 h incubation
Method: as §1, §2

Row | Compound | IC50 [µM]
40 | COc1cccc2c1C(=O)c1c(O)c3c(c(O)c1C2=O)C[C@@](O)(C(=O)CO)C[C@@H]3O[C@H]1C[C@H](N)[C@H](O)[C@H](C)O1 [Dox, Doxorubicin, reference compound] | 0.274
41 | O=c1oc2cc(O)c(/N=C/c3ccc(Cl)cc3Cl)cc2s1 [Compound 4g, (E)-5-(2,4-Dichlorobenzylideneamino)-6-hydroxybenzo[d][1,3]oxathiol-2-one] | > 10
42 | N#Cc1ccc(/C=N/c2cc3sc(=O)oc3cc2O)cc1 [Compound 4a, (E)-4-((6-Hydroxy-2-oxobenzo[d][1,3]oxathiol-5-ylimino)methyl)benzonitrile] | > 10
43 | O=c1oc2cc(O)c([N+](=O)[O-])cc2s1 [Compound 2, 6-Hydroxy-5-nitrobenzo[d][1,3]oxathiol-2-one] | > 10
44 | CN(C)c1ccc(/C=N/c2cc3sc(=O)oc3cc2O)cc1 [Compound 4i, (E)-5-(4-(Dimethylamino)benzylideneamino)-6-hydroxybenzo[d][1,3]oxathiol-2-one] | > 10
45 | O=c1oc2cc(O)c(/N=C/c3ccc([N+](=O)[O-])cc3)cc2s1 [Compound 4b, (E)-6-Hydroxy-5-(4-nitrobenzylideneamino)benzo[d][1,3]oxathiol-2-one] | < 5
46 | O=c1oc2cc(O)c(/N=C/c3ccc(Cl)cc3)cc2s1 [Compound 4f, (E)-5-(4-Chlorobenzylideneamino)-6-hydroxybenzo[d][1,3]oxathiol-2-one] | > 10
47 | O=c1oc2cc(O)c(/N=C/c3cc(O)ccc3O)cc2s1 [Compound 4n, (E)-5-(2,5-Dihydroxybenzylideneamino)-6-hydroxybenzo[d][1,3]oxathiol-2-one] | > 10
48 | O=c1oc2cc(O)c(/N=C/c3ccccc3O)cc2s1 [Compound 4k, (E)-6-Hydroxy-5-(2-hydroxybenzylideneamino)benzo[d][1,3]oxathiol-2-one] | > 10
49 | O=c1oc2cc(O)c(/N=C/c3ccc4c(c3)OCO4)cc2s1 [Compound 4r, (E)-5-(Benzo[d][1,3]dioxol-5-ylmethyleneamino)-6-hydroxybenzo[d][1,3]oxathiol-2-one] | > 10

same assay, conditions: IC50 with 95% confidence interval, triplicate, 72 h incubation

Row | Compound | IC50 [µM]
50 | O=c1oc2cc(O)c(/N=C/c3ccc([N+](=O)[O-])cc3)cc2s1 [Compound 4b, (E)-6-Hydroxy-5-(4-nitrobenzylideneamino)benzo[d][1,3]oxathiol-2-one] | 4.8
